From US20110059953A1, “COMPOUNDS FOR USE IN STABILIZING P53 MUTANTS” (priority 2008, published 2011)

Each compound was assayed against T1, T-p53C-Y220C (Homo sapiens, UniProt P04637, M133L/N239Y/N268D/V203A/Y220C) (assay: Thermal denaturation using fluorescence (Sypro Orange)). Conditions: further compounds; 10 μM protein.
T1 construct: For all other experiments, the DNA coding for residues 94-312 of T-p53C was inserted into a modified pET24a(+) vector; 6xHis tag + B. stearothermophilus dihydrolipoyl acetyltransferase lipoyl domain (aa 1-85) + TEV site (N, cleaved yes); made in house; host or cells: Escherichia coli BL21 (DE3) or C41 (DE3)
Type: binding
Procedure: This was by an adaption of the classical procedure (e.g. ref A6). Thermal unfolding was monitored by the binding of the dye Sypro Orange (5×) using a Rotor-gene 6000 (Corbett Life Science) at 270 K/h in 25 mM NaPi, 150 mM NaCl and 5 mM DTT, pH 7.2 with a protein concentration of 10 μM.
(§1) Where listed, S.E. is the calculated standard error.
as §1

| SMILES | ΔTm (° C.) |
| --- | --- |
| Cn1cc(NN)c2ccccc21 [PK253] | 0.093 °C |
| CCn1c2ccccc2c2cc(CN(C)c3ccc4nnnn4n3)ccc21 [PK157] | 0.12 °C |
| [2H]C(=O)N1CCc2[nH]c3ccccc3c2C1 [PK293] | 0.3741 °C |
| CCOc1ccc2c(c1)c(CCN)cn2CC [PK407] | 0.29 °C |
| [2H]C(=O)OCC(=O)NC(=O)NCC=C [PK256] | 0.1 °C |
| [2H]C(=O)OCC(=O)NCC(F)(F)F [PK258] | 0.1 °C |
| [2H]C(=O)OCC(=O)Nc1cc(C)on1 [PK264] | 0.19 °C |
| CCOC(=O)c1c(C)n(C2CC2)c2ccc(OC(=O)C3COc4ccccc4O3)cc12 (stereo not drawn) [PK305] | 0.26 °C |
| CCn1c2ccccc2c2cc(NC(=O)CN(C)CC(=O)Nc3ccc(N4CCOCC4)cc3)ccc21 [PK122] | 0.28 °C |
| [2H]C(=O)OC(C)C(=O)NC(N)=O (stereo not drawn) [PK263] | 0.06 °C |
| CCn1c2ccccc2c2cc(CN3CCCN(C)CC3)ccc21 [PK175] | 0.395 °C |
| CCn1cc(C(=O)Nc2ccn(C)n2)c2ccccc21 [PK318] | 0.12 °C |
| CCn1c2ccccc2c2cc(CN3CCN(Cc4cc(OC)ccc4O)CC3)ccc21 [PK202] | 0.17 °C |
| [2H]C(=O)Nc1ccc(N2CCN(C)CC2)cc1C [PK295] | 0.244 °C |
| COc1ccc2c(c1)c(C(=O)NCCc1ccccn1)c(C)n2C1CC1 [PK276] | 0.29 °C |
| CCn1c2ccccc2c2cc(CN(C)CC(O)c3ccccc3)ccc21 (stereo not drawn) [PK186] | 0.18 °C |
| [2H]C(=O)OC(C)c1nc(N)nc(N(C)C)n1 (stereo not drawn) [PK286] | 0.24 °C |
| CCn1cc(C(=O)OC(C)C(=O)Nc2cc(C)on2)c2ccccc21 (stereo not drawn) [PK270] | 0.11 °C |
| CCn1cc(C(=O)Nc2ccc(OC)cc2)c2ccccc21 [PK237] | 0.2 °C |
| [2H]C(=O)OC(CC)C(=O)Nc1cc(C)on1 (stereo not drawn) [PK284] | 0.23 °C |
| [2H]C(=O)OCC(=O)NC(=O)NCC [PK266] | 0.18 °C |
| [2H]C(=O)OCC(=O)NC(=O)NC1CCCC1 [PK269] | 0.15 °C |

| SMILES | ΔTm (° C.) |
| --- | --- |
| CCn1c2ccccc2c2cc(CN3CCCC(C4NC(=O)NC4C)C3)ccc21 (stereo not drawn) [PK218] | 0.31 °C |
| CCn1cc(C(=O)O)c2ccccc21 [PK242] | 0.16 °C |
| CCn1c2ccccc2c2cc(CN3CCN(S(=O)(=O)c4ccccc4)CC3)ccc21 [PK215] | 0.17 °C |
| CCn1c2ccccc2c2cc(NC(=O)CN3C(=O)NC4(CCCCC4)C3=O)ccc21 [PK165] | 0.24 °C |
| CCn1c2ccccc2c2cc(CN3CCN(Cc4ccccc4C(F)(F)F)CC3)ccc21 [PK197] | 0.08 °C |
| CCn1cc(C(=O)NC(c2cccc(F)c2)c2nccn2C)c2ccccc21 (stereo not drawn) [PK317] | 0.09 °C |
| CCn1c2ccccc2c2cc(NC(=O)COc3ccc(S(=O)(=O)N4CCOCC4)cc3)ccc21 [PK094] | 0.195 °C |
| [2H]C(=O)Nc1cc(S(=O)(=O)N2CCN(C)CC2)ccc1OC [PK280] | 0.42 °C |
| [2H]C(=O)N(C)Cc1nc2ccccc2c(=O)[nH]1 [PK315] | 0.29 °C |
| CCn1c2ccccc2c2cc(CN3CCOCC3)ccc21 [PK190] | 0.15 °C |
| [2H]C(=O)N1CCN(c2ncccn2)CC1 [PK283] | 0.19 °C |
| [2H]C(=O)OCC(=O)NC(=O)NC [PK268] | 0.31 °C |
| CCn1c2ccccc2c2cc(CN3CCN(C)CC3)ccc21 [PK177] | 0.2 °C |
| COc1ccc2c(c1)c(C(=O)OCC(=O)Nc1cc(F)ccc1F)c(C)n2C1CC1 [PK310] | 0.36 °C |
| [2H]C(=O)N1CCN(Cc2ccccc2)CC1 [PK285] | 0.2 °C |
| CCOC(=O)c1c(C)n(C)c2ccc(OCCN(C)C)cc12 [PK250] | 0.14 °C |
| CCn1c2ccccc2c2cc(CN3CCc4ccccc4C3)ccc21 [PK176] | 0.455 °C |
| CCOC(=O)c1c(C)n(CC)c2cc(Br)c(OC)cc12 [PK248] | 0.21 °C |
| CCn1cc(C=C(C#N)C#N)c2ccccc21 [PK238] | 0.2 °C |
| CCOC(=O)c1c(C)n(C)c2ccc(O)cc12 [PK241] | 0.2 °C |
| CCn1cc(C(=O)OCC(=O)c2ccc[nH]2)c2ccccc21 [PK279] | 0.24 °C |
| [2H]NNS(=O)(=O)c1ccc(OC(F)(F)F)cc1 [PK254] | 0.43 °C |

Other lines, results leading:

| ΔTm (° C.) | SMILES |
| --- | --- |
| 0.16 °C | CCn1c2ccccc2c2cc(NC(=O)C3=COCCO3)ccc21 [PK153] |
| 0.28 °C | CCn1c2ccccc2c2cc(NC(=O)COC(=O)Cn3nc(C)c([N+](=O)[O-])c3C)ccc21 [PK118] |
| 0.3 °C | CCn1cc(C(=O)OCc2nc(N)nc(Nc3ccccc3)n2)c2ccccc21 [PK301] |
| 0.2 °C | CCn1cc(C=C(C#N)C(N)=O)c2ccccc21 [PK240] |
| 0.28 °C | CNCc1ccc2c(c1)c1ccccc1n2CCS [PK234] |
| 0.14 °C | CCn1c2ccccc2c2cc(NC(=O)CN3CCC(C(N)=O)CC3)ccc21 [PK151] |
| 0.3 °C | CCn1c(-c2cn(CC)c3ccccc23)n[nH]c1=S [PK236] |
| 0.16 °C | CCn1cc(C(=O)NCc2cccc(NC(=O)c3ccco3)c2)c2ccccc21 [PK314] |
| 0.335 °C | CCn1c2ccccc2c2cc(NC(=O)COC(=O)CNC(=O)c3ccc([N+](=O)[O-])cc3)ccc21 [PK108] |
| 0.66 °C | CCn1c2ccccc2c2cc(CNCC(C)O)ccc21 (stereo not drawn) [PK391] |
| 0.4 °C | CCn1c2ccccc2c2cc(CNCC(F)(F)F)ccc21 [PK230] |
| 0.14 °C | CCn1cc(C2CC3CN(C)C(=O)C34CCCN24)c2ccccc21 (stereo not drawn) [PK222] |
| 0.2 °C | CCn1c2ccccc2c2cc(NC(=O)CO)ccc21 [PK132] |
| 0.15 °C | CCn1cc(C(=O)NCc2cccc(NC(=O)C3CC3)c2)c2ccccc21 [PK312] |
| 0.41 °C | CCn1c2ccccc2c2cc(CNCCSc3nnnn3C)ccc21 [PK390] |
| 0.365 °C | CCn1c2ccccc2c2cc(NC(=O)CN3C(=O)NC4(CCCC4)C3=O)ccc21 [PK116] |
| 0.44 °C | CCn1cc(C(=O)Nc2cccc(S(=O)(=O)N(C)C)c2)c2ccccc21 [PK272] |
| 0.39 °C | CNCc1ccc2c(c1)c1ccccc1n2CCBr [PK232] |
| 0.24 °C | CCn1c2ccccc2c2cc(NC(=O)CN3CCOCC3)ccc21 [PK128] |
| 0.23 °C | CCCN1CCN(CC(=O)Nc2ccc3c(c2)c2ccccc2n3CC)CC1 [PK126] |
| 0.26 °C | CCn1cc(C(=O)NCc2cccc(S(=O)(=O)N3CCOCC3)c2)c2ccccc21 [PK306] |
| 0.35 °C | CCn1c2ccccc2c2cc(CNCCN3CCOCC3)ccc21 [PK208] |
| 0.26 °C | CCn1cc(C(=O)NCc2cccc(NC(=O)C3CC3)c2)c2ccccc21 [PK307] |
| 0.29 °C | CCn1cc(C(=O)OCCOc2ccccc2C(C)=O)c2ccccc21 [PK309] |
| 0.083 °C | CCn1c2ccccc2c2cc(NC(=O)CCCC(=O)O)ccc21 [PK135] |
| 0.15 °C | CCn1cc(C(=O)OCC2CNC(=O)O2)c2ccccc21 (stereo not drawn) [PK311] |
| 0.387 °C | CCn1cc(C(=O)CN2CCc3ccccc3C2)c2ccccc21 [PK212] |
| 0.2 °C | Cc1c(C=O)c2ccccc2n1C [PK243] |
